Like-named read-outs stand apart in the source and are kept apart here.
Columns and labels:
plasma proteins [1] = test: Binding to plasma proteins in vitro, mouse plasma (ultrafiltrate); type: in vitro ADME
Source text: Br. J. Cancer (1984), 50, 291-303 Preclinical pharmacokinetics of benznidazole P. Workman', R.A.S. White2, M.I. Walton', L.N. Owen2* & P.R. Twentyman' 1MRC Clinical Oncology and Radiotherapeutics Unit, MRC Centre, Hills Road, Cambridge CB2 2QH, and 2Department of Clinical Veterinary Medicine, University of Cambridge, Madingley Road, Cambridge CB3 OES, UK. […] We have investigated the detailed pharmacokinetics of benznidazole in mice, dogs and sheep to provide a data base for the estimation of doses required for chemosensitization in man. Pharmacokinetic behaviour was linear except at high doses in mice. Absorption was fairly rapid and bioavailability was complete following both i.p. administration in mice and oral administration in dogs. Elimination t4 values were longer than for MISO, being 90 min in mice, 4-5 h in sheep and 9-11 h in dogs. At doses giving linear kinetics, peak whole plasma concentrations per administered mgkg-1 were 0.75 jigml-1 for the i.p. route in mice and 1.8jugmlP' for the oral route in dogs. Though between 39 and 59% of plasma benznidazole was bound to protein, tissue penetration was generally good. Tissue/whole plasma ratios ranged from 59-99% for transplantable mouse tumours and from 14-70% for spontaneous dog neoplasms. Nervous tissue penetration was similar to that in tumours: brain/whole plasma ratios averaged between 61 and 76% in mice and 42% in dogs, while peripheral nerve/whole plasma ratios in dogs averaged 74%. […] Although benznidazole is used quite widely in South America to treat patients with the trypanosomal infection Chagas' disease or with mucotaneous Leishmaniasis (Barclay et al., 1978; Cerisola et al., 1978; Coura et al., 1978; Fava et al., 1978), apart from our preliminary studies (White et al., 1982) the only published data on its pharmaco- kinetics are for human plasma concentrations measured by polarography (Raaflub & Ziegler, 1979; Raaflub, 1980). Here we describe the pharmacokinetics of benznidazole in the mouse, sheep and dog, as determined by high-performance liquid chromatography (HPLC). […]

[2] = Plasma pharmacokinetics in man (literature); type: in vivo; settings: oral doses of 6-20 mg kg-1, extrapolated from dog and literature human data
[3] = cited from earlier work
KHT tumour = settings: mice, cited from earlier work
plasma proteins [4] = test: In vivo plasma protein binding in dogs (plasma ultrafiltrate); settings: dog; for fraction unbound: plasma
Source text: Br. J. Cancer (1984), 50, 291-303 Preclinical pharmacokinetics of benznidazole P. Workman', R.A.S. White2, M.I. Walton', L.N. Owen2* & P.R. Twentyman' 1MRC Clinical Oncology and Radiotherapeutics Unit, MRC Centre, Hills Road, Cambridge CB2 2QH, and 2Department of Clinical Veterinary Medicine, University of Cambridge, Madingley Road, Cambridge CB3 OES, UK. […] We have investigated the detailed pharmacokinetics of benznidazole in mice, dogs and sheep to provide a data base for the estimation of doses required for chemosensitization in man. Pharmacokinetic behaviour was linear except at high doses in mice. Absorption was fairly rapid and bioavailability was complete following both i.p. administration in mice and oral administration in dogs. Elimination t4 values were longer than for MISO, being 90 min in mice, 4-5 h in sheep and 9-11 h in dogs. At doses giving linear kinetics, peak whole plasma concentrations per administered mgkg-1 were 0.75 jigml-1 for the i.p. route in mice and 1.8jugmlP' for the oral route in dogs. Though between 39 and 59% of plasma benznidazole was bound to protein, tissue penetration was generally good. Tissue/whole plasma ratios ranged from 59-99% for transplantable mouse tumours and from 14-70% for spontaneous dog neoplasms. Nervous tissue penetration was similar to that in tumours: brain/whole plasma ratios averaged between 61 and 76% in mice and 42% in dogs, while peripheral nerve/whole plasma ratios in dogs averaged 74%. Mean liver/whole plasma ratios were 42% and 71% in BALB/c and C3H/He mouse strains respectively. Only -5% of the administered dose was excreted unchanged in the urine, indicating the likelihood of extensive metabolism. […] Enhancement of CCNU response is likely to require circulating benznidazole concentrations of 10-30 pgml-1 and we predict that these will be obtained with oral doses of 6-20 mgkg- 1 in man. […] This enhancement, or chemosensitization, is usually greater than that seen in dose-limiting normal tissues, resulting in an improved therapeutic index. Because of the relatively high doses of MISO usually required for chemosensitization in mice (see above refs), and also because of its neurotoxicity in man (Dische et al., 1977), we have been interested in finding an improved chemosensitizer. […] The lipophilic ana- logue benznidazole (N-benzyl-(2-nitroimidazolyl) acetamide, Ro 07-1051; Radanil; Roche), the structure of which is shown in Figure 1, was selected for detailed study because of its ability to *Present address: Animal Health Trust, Small Animals Centre, Lanwades Park, Kennett, Newmarket, Suffolk CB8 7PN, UK. Correspondence: P. Workman. […] These findings have been confirmed independently by Siemann et al. (1983). Although benznidazole is used quite widely in South America to treat patients with the trypanosomal infection Chagas' disease or with mucotaneous Leishmaniasis (Barclay et al., 1978; Cerisola et al., 1978; Coura et al., 1978; Fava et al., 1978), apart from our preliminary studies (White et al., 1982) the only published data on its pharmaco- kinetics are for human plasma concentrations measured by polarography (Raaflub & Ziegler, 1979; Raaflub, 1980). Here we describe the pharmacokinetics of benznidazole in the mouse, sheep and dog, as determined by high-performance liquid chromatography (HPLC). […] The Macmillan Press Ltd., 1984 292 P. WORKMAN et al. particularly on plasma and tumour concentrations, have been used as a basis for the estimation of the benznidazole doses required in a Phase I trial of benznidazole plus CCNU, at present ongoing in our Unit. Materials and methods Animals and tumours Adult inbred male BALB/c mice were obtained from OLAC (Southern) Ltd. (Bicester, UK) and adult inbred C3H/He mice of both sexes from OLAC and our own breeding colony. Mice were housed in plastic cages on sawdust bedding made from soft white woods, and allowed laboratory chow and water ad lib. They were used at 20-35 g body wt.

bovine serum albumin = test system: bovine serum albumin; design: method as in Clarke & Wardman, cited in Watts et al., 1980; settings: ref Clarke & Wardman, cited in Watts et al., 1980; cited from earlier work
[5] = design: method as in earlier work; settings: patients, 5 mg kg-1 day-1 for 30 days, side effects incl. peripheral neuropathy observed in these studies, ref Barclay et al., 1978, Cerisola et al., Coura et al., Fava et al.; cited from earlier work
[6] = man, average daily dose 3.5 mg kg-1, literature
[7] = benznidazole 78 mg kg-1 i.p., ref Twentyman & Workman, 1983, Siemann et al.

O=C(Cn1ccnc1[N+](=O)[O-])NCc1ccccc1 [benznidazole, N-benzyl-(2-nitroimidazolyl) acetamide]
extent of binding to plasma proteins in vitro (plasma proteins [1]; BALB/c mice): 38% | extent of binding to plasma proteins in vitro (plasma proteins [1]; C3H/He mice): 39% | binding to plasma proteins (plasma proteins [1]; mouse, discussion summary): 39% | predicted circulating (peak whole plasma) concentrations [2]: 10-30 micrograms ml-1 | mean t1/2 ([3]; humans, low doses, polarographic analysis, ref Raaflub & Ziegler (1979) and Raaflub (1980)): 12 to 14 h | mean steady state maximum plasma concentration (s.e., n=6) [3, 6]: 12.4 ± 0.7 µg/mL | mean steady state minimum plasma concentration (s.e., n=6) [3, 6]: 8.3 ± 0.6 µg/mL | peak time ([3]; man, low oral doses, ref Raaflub & Ziegler, 1979): 3 to 4 h | mean peak plasma concentration per administered mg kg-1 (s.e., n=7) ([3]; man, oral, low doses (mean 1.73 mg kg-1), ref Raaflub & Ziegler, 1979): 1.48 + 0.06 µg ml-1 | enhancement factor of CCNU response in normal tissues (KHT tumour; [7]): 1.2-1.4 | enhancement factor of tumour response to CCNU (KHT tumour; [7]): 1.5-2 | i.p. dose giving clear enhancement of KHT tumour response to CCNU (at least as low as) (KHT tumour; ref Workman & Twentyman, 1982): ≤ 13 mg/kg | fraction unbound (plasma proteins [4]; beagle, po, 50 mg kg-1, dog E, 50 mg kg-1 oral, full time course, read-out: protein binding (mean+s.e., n=8) (converted)): 0.45 | fraction unbound (plasma proteins [4]; beagle, po, 50 mg kg-1, dog F, 50 mg kg-1 oral, full time course, read-out: protein binding (mean+s.e., n=8) (converted)): 0.48 | fraction unbound (plasma proteins [4]; collie crossbred, beagle, iv, dogs, apart from the two i.v. time courses, read-out: in vivo protein binding, range): 0.41 to 0.48 | fraction unbound (plasma proteins [4]; collie crossbred, iv, 5 mg kg-1, dog C, 5 mg kg-1 i.v., full time course, read-out: protein binding (mean+s.e., n=8) (converted)): 0.28 | fraction unbound (plasma proteins [4]; collie crossbred, iv, 5 mg kg-1, dog D, 5 mg kg-1 i.v., full time course, read-out: protein binding (mean+s.e., n=8) (converted)): 0.26 | fraction unbound (plasma proteins [4]; collie crossbred, po, 25 mg kg-1, dog A, 25 mg kg-1 oral, mean of 4 and 5 h values, read-out: protein binding (converted)): 0.47 | fraction unbound (plasma proteins [4]; collie crossbred, po, 25 mg kg-1, dog B, 25 mg kg-1 oral, mean of 4 and 5 h values, read-out: protein binding (converted)): 0.41 | fraction unbound (plasma proteins [4]; collie crossbred, po, 25 mg kg-1, dog C, 25 mg kg-1 oral, mean of 4 and 5 h values, read-out: protein binding (converted)): 0.45 | fraction unbound (plasma proteins [4]; collie crossbred, po, 25 mg kg-1, dog D, 25 mg kg-1 oral, mean of 4 and 5 h values, read-out: protein binding (converted)): 0.47 | binding to plasma proteins (plasma proteins [4]; discussion summary): 59% | binding (bovine serum albumin): 46% | tolerability [5]: well tolerated
